# Experimental data as given in PubChem BioAssay (NCI).
# Where “and” joins values, the source holds several entries; their conditions need not be identical. Identical values can stand only once.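 Results reflect a 48-hour exposure of cells in 96-well plates to compound at five concentrations. GI50: concentration for 50% inhibition of growth. Definition used: TGI = concentration required for complete inhibition of growth.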
# Legend:
# Assay in all cases: growth of human tumour cells (NCI), 48 h
# RXF 393 renal = tested on: RXF 393 renal
# CCRF-CEM leukemia = tested on: CCRF-CEM leukemia
# MDA-MB-435 = tested on: MDA-MB-435
# CAKI-1 renal = tested on: CAKI-1 renal
# HCT-116 colon = tested on: HCT-116 colon
# LOX IMVI melanoma = tested on: LOX IMVI melanoma
# ACHN renal = tested on: ACHN renal
# HCC-2998 colon = tested on: HCC-2998 colon
# M14 melanoma = tested on: M14 melanoma
# SNB-19 CNS = tested on: SNB-19 CNS
Compound,GI50 (RXF 393 renal) [µM],TGI (RXF 393 renal),GI50 (CCRF-CEM leukemia) [µM],TGI (CCRF-CEM leukemia) [µM],GI50 (MDA-MB-435) [µM],TGI (MDA-MB-435),GI50 (CAKI-1 renal) [µM],TGI (CAKI-1 renal),GI50 (HCT-116 colon) [µM],TGI (HCT-116 colon),GI50 (LOX IMVI melanoma) [µM],TGI (LOX IMVI melanoma) [µM],GI50 (ACHN renal) [µM],TGI (ACHN renal),GI50 (HCC-2998 colon) [µM],TGI (HCC-2998 colon),GI50 (M14 melanoma) [µM],TGI (M14 melanoma),GI50 (SNB-19 CNS) [µM],TGI (SNB-19 CNS)
Cc1ccn2c3c(c(C(=O)O)c2c1)C(=O)c1ccccc1C3=O,10.4,> 100 µM,> 100,> 100,1.57,3.05 µM,> 100,> 100 µM,> 48.3,> 100 µM,4.36,> 100,> 96.4,> 100 µM,4.58,> 100 µM,1.11,2.64 µM,4.24,> 100 µM
Cc1cc2nc3c4cc(Cl)ccc4n(CCN(C)C)c3nc2cc1C,1.59,3.32 µM,1.22,4.63,1.69,3.19 µM,1.06,2.8 µM,0.7,2.08 µM,1.13,2.37,0.66,2.01 µM,1.35,2.74 µM,1.49,2.93 µM,1.92,6.83 µM
CC(C)(C)OC(=O)n1cc(CNC(=S)Nc2ccccc2)c2ccccc21,19.3,43.2 µM,–,–,12.2,30.1 µM,4.68,23.2 µM,15.2,30.1 µM,11.1,23,5.12,19.6 µM,–,–,17.7,33.3 µM,15.3,61.7 µM
Clc1ccccc1C(c1ccccc1)(c1ccccc1)n1ccnc1,2.89,9.28 µM and 42.1 µM,–,31.4,2.4,10.1 µM and 47.4 µM,2.34,15.3 µM and 50.5 µM,1.44,3.35 µM and 23 µM,1.69,4.66,2.87,13.1 µM and 25.6 µM,3.3,12.7 µM and 31 µM,2.23,5.46 µM and 29.8 µM,3.14,17.7 µM and 32.3 µM
C=CC(=O)N[C@H]1C=C(C)c2c(-c3cnc4ccccc4c3)c3c(N)ncnc3n2C1,2.68,11.7 µM,22.3,> 100,17.8,67 µM,1.82,17.6 µM,13.2,34.7 µM,7.16,23.5,0.249,16.8 µM,22.4,45 µM,10,32.4 µM,32.4,> 100 µM
Oc1ccccc1/C=N/Nc1ccc2ccccc2n1,18.3,> 100 µM,0.862,> 100,6.42,> 100 µM,2.98,> 100 µM,4.51,> 100 µM,–,–,2.86,68.6 µM,6.59,> 100 µM,3.65,> 100 µM,5.39,> 100 µM
C#Cc1cnc(=O)n(C2CC(O)C(CO)O2)c1 (configuration not stated),> 100,> 100 µM,13.5,> 32.8,> 100,> 100 µM,> 62.2,> 100 µM,> 100,> 100 µM,> 100,> 100,> 100,> 100 µM,> 100,> 100 µM,> 100,> 100 µM,–,> 23 µM
COc1ccc(C(=S)N2CCN(c3cccc(Cl)c3)CC2)cc1,> 100,> 100 µM,> 100,> 100,62,> 100 µM,> 100,> 100 µM,> 100,> 100 µM,> 100,> 100,> 100,> 100 µM,> 100,> 100 µM,> 100,> 100 µM,> 100,> 100 µM
Cc1nn(-c2ccc(F)cc2)c2ncnc(Nc3ccc(NC(=O)Nc4ccc(Cl)c(C(F)(F)F)c4)cc3)c12,1.86,5.98 µM,1.57,13.2,3.26,12.6 µM,1.83,4.75 µM,1.51,5.07 µM,1.96,4.48,1.75,5.62 µM,2.57,10.6 µM,3.03,11.6 µM,2.93,10.2 µM
COc1ccc(-c2nn(-c3cccc(Cl)c3)cc2C2CC(c3ccccc3)=NN2C(C)=O)cc1 (configuration not stated),6.49,30.8 µM,> 100,> 100,> 100,> 100 µM,6.54,> 100 µM,4.2,> 100 µM,11,> 100,3.48,20 µM,> 100,> 100 µM,7.68,> 100 µM,17,> 100 µM
Fc1cccc(COc2ccc(Nc3ncncc3C#Cc3ccccc3)cc2Cl)c1,> 25,> 25 µM,> 25,> 25,> 25,> 25 µM,12.5,> 25 µM,24.4,> 25 µM,> 25,> 25,> 25,> 25 µM,> 25,> 25 µM,> 25,> 25 µM,> 25,> 25 µM
COC(=O)C1OC(O[C@H]2CCC3(C)C(CCC4(C)C3CC=C3C5CC(C)(C)CCC5(C(=O)O)CC[C@]34C)C2(C)C)C(O)C(OC2OC(CO)C(O)C(O)C2O)C1O (some centres not stated),11.3,> 33.3 µM,5.79,13.1,13.3,> 33.3 µM,12.2,> 33.3 µM,6.39,11.5 µM,6.27,11.7,5.99,10.7 µM,7.14,12.4 µM,6.22,11.5 µM,6.82,15.5 µM
